Measured values as given in article PMC9308496 (Journal of medicinal chemistry, 2021).

How the values were obtained:
[1] = dogs; cited from earlier work
[2] = biological target: hD2R (human D2LR) (Homo sapiens, UniProt P14416); test: Radioligand competition binding at hD2R with [3H]-N-methylspiperone
[3] = biological target: MOR (SNAP-mMOR) (Mus musculus, UniProt P42866); test: BRET antagonism at MOR using GPA in the presence of 100 nM DAMGO; format: cell-based
[4] = biological target: hD3R (Homo sapiens, UniProt P35462); test: Radioligand competition binding at hD3R with [3H]-N-methylspiperone
Sequence of hD3R (P35462 whole entry): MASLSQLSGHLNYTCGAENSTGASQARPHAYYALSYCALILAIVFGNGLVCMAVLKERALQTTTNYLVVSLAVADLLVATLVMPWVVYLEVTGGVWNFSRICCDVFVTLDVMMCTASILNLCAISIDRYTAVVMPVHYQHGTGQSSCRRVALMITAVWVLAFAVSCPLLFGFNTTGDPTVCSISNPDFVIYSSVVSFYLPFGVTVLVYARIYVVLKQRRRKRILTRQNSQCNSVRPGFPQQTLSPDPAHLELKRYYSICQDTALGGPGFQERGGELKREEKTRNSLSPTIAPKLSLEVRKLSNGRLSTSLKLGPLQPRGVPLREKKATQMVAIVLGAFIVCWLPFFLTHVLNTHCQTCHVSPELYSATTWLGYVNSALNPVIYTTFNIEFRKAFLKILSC

Sequence of MOR (SNAP-mMOR) (P42866 whole entry): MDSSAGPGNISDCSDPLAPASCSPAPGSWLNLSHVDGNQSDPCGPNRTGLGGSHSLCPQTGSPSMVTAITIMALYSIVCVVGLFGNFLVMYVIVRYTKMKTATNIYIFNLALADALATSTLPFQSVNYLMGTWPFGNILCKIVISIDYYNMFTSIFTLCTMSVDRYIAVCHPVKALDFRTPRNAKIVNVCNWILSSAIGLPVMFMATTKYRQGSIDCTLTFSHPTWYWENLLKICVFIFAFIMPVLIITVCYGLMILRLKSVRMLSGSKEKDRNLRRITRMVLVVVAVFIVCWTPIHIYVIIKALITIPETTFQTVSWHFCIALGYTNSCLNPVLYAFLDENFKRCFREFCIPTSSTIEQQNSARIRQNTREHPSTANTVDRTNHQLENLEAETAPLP
Sequence of hD2R (human D2LR) (P14416 whole entry): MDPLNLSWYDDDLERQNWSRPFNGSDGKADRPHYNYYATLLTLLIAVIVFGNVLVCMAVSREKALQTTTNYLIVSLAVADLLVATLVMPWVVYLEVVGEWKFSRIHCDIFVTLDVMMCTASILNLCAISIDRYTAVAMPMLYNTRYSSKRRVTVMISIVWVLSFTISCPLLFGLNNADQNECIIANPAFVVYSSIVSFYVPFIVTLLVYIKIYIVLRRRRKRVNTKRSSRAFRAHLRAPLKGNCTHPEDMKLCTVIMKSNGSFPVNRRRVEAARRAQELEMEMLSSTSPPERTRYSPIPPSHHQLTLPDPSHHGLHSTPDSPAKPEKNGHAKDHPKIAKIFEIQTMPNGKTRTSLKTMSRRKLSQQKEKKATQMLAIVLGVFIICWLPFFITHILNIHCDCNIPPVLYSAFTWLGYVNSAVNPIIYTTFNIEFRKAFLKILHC

Cc1ncoc1-c1nnc(SCCCN2C[C@@H]3C[C@]3(c3ccc(C(F)(F)F)cc3F)C2)n1C [GSK598809]
potentiation of hypertensive effects of cocaine [1]: potentiation of hypertensive effects observed in dogs produced by cocaine

CCC(=O)C(CC(C)N(C)C)(c1ccccc1)c1ccccc1 (centres unmarked) [compound 6, methadone]
D2R Ki [2]: completely inactive

CCOC(=O)/C=C1\[C@@H]2CCC[C@@]1(c1cccc(O)c1)CCN2CCCCNC(=O)c1cc2ccccc2[nH]1 [compound 57, trans-Ethyl (Z)-2-((1S,5S)-2-(4-(1H-indole-2-carboxamido)butyl)-5-(3-hydroxyphenyl)-2-azabicyclo[3.3.1]nonan-9-ylidene)acetate]
IC50 [3]: 3520 nM

O=C(NCCCCN1CC[C@]2(c3cccc(O)c3)CCC[C@H]1[C@H]2O)c1cc2ccccc2[nH]1 [compound 62, N-(4-((1S,5S,9S)-9-Hydroxy-5-(3-hydroxyphenyl)-2-azabicyclo[3.3.1]nonan-2-yl)butyl)-1H-indole-2-carboxamide]
Ki [4]: 79.6 nM

CCOC(=O)/C=C1\[C@@H]2CCC[C@@]1(c1cccc(O)c1)CCN2CCN1CCN(c2cccc(Cl)c2Cl)CC1 [compound 65, Ethyl (Z)-2-((1S,5S)-2-(2-(4-(2,3-dichlorophenyl)piperazin-1-yl)ethyl)-5-(3-hydroxyphenyl)-2-azabicyclo[3.3.1]nonan-9-ylidene)acetate]
Ki [4]: 139 nM
